{
  "source": "paper PMC12249711",
  "about": "“Comprehensive Evaluation of 1H-Isoindole-1,3(2H)-Dione Derivatives: Pharmacokinetic Studies and Analgesic Potential in Various Pain Models” (International Journal of Molecular Sciences, 2025)",
  "key": {"[1]": {"system": "mice", "test": "Formalin test", "format": "in vivo, Albino Swiss mice", "details": "for Reduction of pain response, inflammatory phase: phase II (15–30 min)", "method": "The pain reaction was induced by intraplantar (i.pl.) injection of 20 μL of 2.5% formalin solution into the right hind paw of the mouse (n = 136). […] Time (in seconds) spent on licking or biting the injected hind paw in selected intervals, 0–5 min (neurogenic phase) and 15–30 min (inflammatory phase), was measured in each group and was an indicator of nociceptive behavior. The procedure was based on the method described by with some modifications by."}, "[2]": {"system": "rats", "test": "Carrageenan-induced mechanical hyperalgesia (pain pressure threshold, Randall-Selitto)", "format": "in vivo, Wistar rats", "details": "for Pain Threshold: 20 mg/kg i.p., mean ± SEM, rats; for Increase in pain threshold: 20 mg/kg, vs control", "method": "The acute and local inflammation and paw edema was induced by intraplantar (i.pl.) injection of 0.1 mL of 1% carrageenan solution in PBS into the rat’s right hind paw, according to the modified method of Winter and Lence, as described previously; (n = 84). The paw volume was measured using the dislocation of the water column of the plethysmometer (Type a, 7140; Plethysmometer, Ugo Basile, Gemonio, Italy) before (V0) and at 1, 2, and 3 h (V1, V2, V3) after i.pl. carrageenan injection. […] Vehicle (1% Tween 80) was administered by the same route as the tested compounds.\nFurthermore, we performed the pain pressure threshold test to assess heightened sensitivity to mechanical stimuli. The experiment was conducted based on the method described by Randall and Selitto [58], with certain modifications. An analgesymeter (AnalgesyMeter 37215, Ugo Basile, Gemonio, Italy) was used to gradually apply increasing pressure (measured in grams) to the plantar surface of the right hind paw of the rat until paw withdrawal occurred. At this point, the intensity of the applied force (in grams) was recorded as the withdrawal threshold. The maximum force intensity was set at 250 g. Carrageenan induces a decrease in the nociceptive threshold in response to a mechanical stimulus, a condition referred to as hyperalgesia. For each rat, paw withdrawal thresholds were recorded both before (0 h) and 1, 2, and 3 h after carrageenan administration (i.e., 3.5 h after intraperitoneal pretreatment with the tested compounds). […] The analgesic effect of the tested compounds was assessed in comparison with the control group (1% Tween 80); the injection was performed intraperitoneally within 30 min of carrageenan administration. An analgesic effect occurs when the compound administered produces a pain response with greater pressure than the control group."}},
  "data": [
    {"molecule": "CC(C(=O)O)c1cccc(C(=O)c2ccccc2)c1", "note": "(stereo not drawn) [Ketoprofen, ketoprofen, reference compound]", "values": [
      {"measurement": "Reduction of pain reaction (licking duration), neurogenic phase", "setting": "[1]; phase I (0–5 min), 20 mg/kg i.p., vs vehicle", "value": 59.7, "unit": "%"},
      {"measurement": "Reduction of neurogenic pain, neurogenic phase", "setting": "[1]; phase I, ketoprofen doses other than 20 mg/kg", "value": "did not show a statistically significant reduction"},
      {"measurement": "Reduction of pain response, inflammatory phase", "setting": "[1]; 10 mg/kg i.p., vs vehicle", "value": 23.2, "unit": "%"},
      {"measurement": "Reduction of pain response, inflammatory phase", "setting": "[1]; 20 mg/kg i.p., vs vehicle", "value": 59.9, "unit": "%"},
      {"measurement": "Reduction of pain response, inflammatory phase", "setting": "[1]; 50 mg/kg, vs vehicle", "value": 71.8, "unit": "%"},
      {"measurement": "Pain Threshold", "setting": "[2]; 0 h (before carrageenan)", "value": "130 ± 2.9", "unit": "g"},
      {"measurement": "Pain Threshold", "setting": "[2]; 1 h after carrageenan", "value": "155.8 ± 5.2", "unit": "g"},
      {"measurement": "Pain Threshold", "setting": "[2]; 2 h after carrageenan", "value": "187.5 ± 9.0", "unit": "g"},
      {"measurement": "Pain Threshold", "setting": "[2]; 3 h after carrageenan", "value": "178.3 ± 11.7", "unit": "g"},
      {"measurement": "Increase in pain threshold", "setting": "[2]; 1 h", "value": 19.8, "unit": "%"},
      {"measurement": "Increase in pain threshold", "setting": "[2]; 2 h", "value": 38, "unit": "%"},
      {"measurement": "Increase in pain threshold", "setting": "[2]; 3 h", "value": 33.8, "unit": "%"}
    ]}
  ]
}
